Laboratory results: patent publication US20230104487A1, “11-(4-CHLOROPHENYL)-4-(2,3-DIHYDRO-1H-INDOLE-1-CARBONYL)-3,11-DIMETHYL-5,10,DIOXATRICYCLO[7.4.0.0,2,6,]TRIDECA-1,3,6,8-TETRAEN-13-ONE AND DERIVATIVES AS DESTABILIZER OF CRY1 FOR THE TREATMENT OF CIRCADIAN RHYTHM ASSOCIATED DISEASES AND DISORDERS” (KOC UNIVERSITESI, priority 2019, published 2023)
“Also recorded” adds a separate entry of the source.

Biological target: T1, CRY1 (Mus musculus, UniProt P97784)
T1 sequence (P97784 1-606): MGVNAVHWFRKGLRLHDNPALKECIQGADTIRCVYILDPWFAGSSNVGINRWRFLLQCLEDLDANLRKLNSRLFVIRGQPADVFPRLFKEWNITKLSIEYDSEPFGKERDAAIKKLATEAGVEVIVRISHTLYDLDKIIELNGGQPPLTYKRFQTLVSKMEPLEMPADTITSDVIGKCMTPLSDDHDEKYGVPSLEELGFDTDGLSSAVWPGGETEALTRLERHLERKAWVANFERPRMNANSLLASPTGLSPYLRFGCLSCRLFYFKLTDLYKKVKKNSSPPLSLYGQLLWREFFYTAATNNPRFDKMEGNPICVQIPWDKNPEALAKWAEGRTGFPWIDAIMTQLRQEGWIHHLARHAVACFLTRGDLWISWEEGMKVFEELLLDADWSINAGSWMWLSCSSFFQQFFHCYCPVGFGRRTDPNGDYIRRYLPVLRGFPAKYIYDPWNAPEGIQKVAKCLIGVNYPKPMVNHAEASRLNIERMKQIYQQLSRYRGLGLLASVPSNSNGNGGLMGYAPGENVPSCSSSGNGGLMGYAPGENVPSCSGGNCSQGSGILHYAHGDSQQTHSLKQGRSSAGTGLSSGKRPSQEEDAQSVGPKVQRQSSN
Assay: Pull-down assay with biotinylated molecule, CRY1-HIS-MYC
Assay type: binding
Conditions: 50 μM bFORMULA I, 100 μM FORMULA I competitor
Protocol: 10 μg of Cry1-pcDNA4, Cry2-pcDNA4 or Cry1-T5-pcDNA4 plasmids expressing His and Myc at the C-terminal of CRYs were transfected to HEK293T cell. After 48 h of transfection cells were harvested and lysed in lysis buffer (50 mM Tris pH 7.4, 2 mM EDTA, 1 mM MgCl2, 0.2% NP-40 (v/v), 0.1% sodium deoxycholate (w/v), 1 mM sodium orthovanadate, 1 mM sodium fluoride, and protease inhibitor cocktail (Thermo Scientific)). Lysates were incubated for 10 minutes on ice then mixed gently and incubated for another 10 minutes on ice. Then lysate was centrifuged for 10 minutes at 7000 g at 4° C. 5% of the supernatant was kept for input analysis. Remaining supernatant was divided to three and mixed with 2×binding buffer (100 mM Tris-HCl pH 7.4, 300 mM NaCl, 0.2% NP-40 (v/v), 2 mM sodium orthovanadate, 2 mM sodium fluoride, and protease inhibitor) with 1:1 ratio, incubated with rotation having either of these: a) DMSO, b) biotinylated molecule, c) biotinylated molecule and the competitor for 2 h. During this period NeutrAvidin Agarose resin (Thermo Scientific) was equilibrated with lysis buffer by mixing for 5 minutes via rotation at 4° C. three times. After each mix period, resins were centrifuged at 2500 g at 4° C. for 2 minutes and supernatant was discarded. […] Pulled-down samples were analyzed via western blot.

SMILES: Cc1c(C(=O)N2CCc3ccccc32)oc2ccc3c(c12)C(=O)CC(C)(c1ccc(Cl)cc1)O3 (stereo not shown) [FORMULA I, 11-(4-chlorophenyl)-4-(2,3-dihydro-1H-indole-1-carbonyl)-3,11-dimethyl-5,10,dioxatricyclo[7.4.0.0,2,6,]trideca-1,3,6,8-tetraen-13-one]
- physical binding to CRY1 (pull-down): physically binds to CRY1; also recorded: binds to PHR of CRY1
